Key:
Format in all cases: biochemical
[1] = target: Human acetylcholinesterase (Homo sapiens, UniProt P22303); assay: AChE inhibition, modified Ellman's spectrophotometric method; settings: for inhibition at 1000 µM: read-out: AChE % inhibition, 10^−3 M; for inhibition at 100 µM: read-out: AChE % inhibition, 10^−4 M
[2] = target: human butyrylcholinesterase (Homo sapiens, UniProt P06276); assay: BChE inhibition, modified Ellman's spectrophotometric method; settings: for inhibition at 100 µM / inhibition at 1000 µM: read-out: BChE % inhibition
[3] = target: T1, MAO-B (Homo sapiens, UniProt P27338); assay: MAO-B inhibition, in vitro fluorometric method; settings: for inhibition at 1000 µM: read-out: MAO-B % inhibition, 10^−3 M; for inhibition at 100 µM: read-out: MAO-B % inhibition, 10^−4 M
T1 sequence (P27338 1-520): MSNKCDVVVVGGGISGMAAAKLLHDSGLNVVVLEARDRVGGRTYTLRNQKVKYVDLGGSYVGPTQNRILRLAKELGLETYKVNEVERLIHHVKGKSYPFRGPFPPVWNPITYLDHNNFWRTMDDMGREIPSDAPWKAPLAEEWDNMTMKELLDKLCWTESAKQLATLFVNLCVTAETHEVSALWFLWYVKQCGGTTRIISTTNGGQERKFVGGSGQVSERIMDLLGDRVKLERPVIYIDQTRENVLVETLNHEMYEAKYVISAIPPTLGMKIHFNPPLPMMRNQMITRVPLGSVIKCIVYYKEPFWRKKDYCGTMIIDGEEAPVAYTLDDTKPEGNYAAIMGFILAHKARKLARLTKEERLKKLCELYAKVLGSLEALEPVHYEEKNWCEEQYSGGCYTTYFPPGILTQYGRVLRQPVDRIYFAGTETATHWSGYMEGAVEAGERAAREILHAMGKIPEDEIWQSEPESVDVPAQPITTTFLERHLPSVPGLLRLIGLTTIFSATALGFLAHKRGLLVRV

[4] = target: T2, MAO-A (Homo sapiens, UniProt P21397); assay: MAO-A inhibition, in vitro fluorometric method; settings: for inhibition at 100 µM / inhibition at 1000 µM: read-out: MAO-A % inhibition
T2 sequence (P21397 1-527): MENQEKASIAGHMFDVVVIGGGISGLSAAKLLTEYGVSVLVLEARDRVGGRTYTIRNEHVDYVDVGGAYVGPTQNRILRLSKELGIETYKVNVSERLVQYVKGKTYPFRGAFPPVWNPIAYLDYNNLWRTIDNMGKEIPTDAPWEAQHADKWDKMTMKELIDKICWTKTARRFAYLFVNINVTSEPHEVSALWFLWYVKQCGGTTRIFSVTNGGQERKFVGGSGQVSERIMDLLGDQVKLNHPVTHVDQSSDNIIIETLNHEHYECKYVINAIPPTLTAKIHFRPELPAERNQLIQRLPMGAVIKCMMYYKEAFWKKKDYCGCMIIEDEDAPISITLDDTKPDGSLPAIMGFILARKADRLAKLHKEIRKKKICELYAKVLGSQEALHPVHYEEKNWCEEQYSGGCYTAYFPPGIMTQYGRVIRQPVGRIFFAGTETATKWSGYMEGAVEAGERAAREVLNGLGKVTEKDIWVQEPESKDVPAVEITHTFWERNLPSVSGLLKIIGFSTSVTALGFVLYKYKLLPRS

[5] = target: beta amyloid 1–42 (Aβ42) (Homo sapiens, UniProt P05067); assay: fluorometric beta amyloid 1–42; settings: for inhibition at 0.01 µM / inhibition at 0.1 µM / inhibition at 1 µM / inhibition at 10 µM: read-out: Percent inhibition of beta amyloid 1–42 (Aβ42) peptide aggregation
beta amyloid 1–42 (Aβ42), sequence (P05067 672-713): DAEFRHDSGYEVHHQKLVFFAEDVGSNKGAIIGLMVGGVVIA

human butyrylcholinesterase, sequence (P06276 29-602): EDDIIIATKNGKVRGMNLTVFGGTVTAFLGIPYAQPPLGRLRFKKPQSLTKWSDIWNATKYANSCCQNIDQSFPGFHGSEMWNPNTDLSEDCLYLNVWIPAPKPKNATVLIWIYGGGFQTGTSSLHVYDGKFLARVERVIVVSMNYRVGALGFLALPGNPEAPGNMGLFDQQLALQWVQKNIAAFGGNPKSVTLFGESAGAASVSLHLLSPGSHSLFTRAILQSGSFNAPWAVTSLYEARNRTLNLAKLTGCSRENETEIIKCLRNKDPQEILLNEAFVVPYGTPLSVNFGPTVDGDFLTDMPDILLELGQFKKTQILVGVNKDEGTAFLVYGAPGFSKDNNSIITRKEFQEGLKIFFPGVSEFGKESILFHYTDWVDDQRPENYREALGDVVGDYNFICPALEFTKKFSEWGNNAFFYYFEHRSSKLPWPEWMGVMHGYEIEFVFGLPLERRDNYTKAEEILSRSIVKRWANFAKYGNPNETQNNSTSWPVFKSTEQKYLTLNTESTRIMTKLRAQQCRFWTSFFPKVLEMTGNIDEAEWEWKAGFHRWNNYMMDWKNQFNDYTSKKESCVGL
Human acetylcholinesterase, sequence (P22303 32-614): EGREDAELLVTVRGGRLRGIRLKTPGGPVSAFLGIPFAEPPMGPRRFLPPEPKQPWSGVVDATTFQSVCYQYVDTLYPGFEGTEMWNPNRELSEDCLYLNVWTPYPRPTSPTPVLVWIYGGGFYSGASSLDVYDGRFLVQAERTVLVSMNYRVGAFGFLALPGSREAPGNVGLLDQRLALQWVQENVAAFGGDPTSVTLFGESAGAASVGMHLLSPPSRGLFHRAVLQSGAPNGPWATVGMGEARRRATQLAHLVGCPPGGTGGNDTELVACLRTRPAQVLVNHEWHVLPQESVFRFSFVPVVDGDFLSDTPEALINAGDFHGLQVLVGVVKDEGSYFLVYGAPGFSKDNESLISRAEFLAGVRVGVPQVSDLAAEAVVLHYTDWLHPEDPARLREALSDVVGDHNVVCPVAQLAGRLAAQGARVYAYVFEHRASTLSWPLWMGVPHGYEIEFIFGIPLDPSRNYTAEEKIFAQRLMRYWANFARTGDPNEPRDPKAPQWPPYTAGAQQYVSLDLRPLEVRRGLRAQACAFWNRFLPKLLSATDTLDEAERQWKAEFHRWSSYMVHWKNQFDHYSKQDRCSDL

| Compound | IC50 [1] [µM] | inhibition at 1000 µM [1] [%] | inhibition at 100 µM [1] [%] | IC50 [2] [µM] | inhibition at 100 µM [2] [%] | inhibition at 1000 µM [2] [%] | IC50 [3] [µM] | inhibition at 1000 µM [3] [%] | inhibition at 100 µM [3] [%] | IC50 [4] [µM] | inhibition at 100 µM [4] [%] | inhibition at 1000 µM [4] [%] | inhibition at 0.01 µM [5] [%] | inhibition at 0.1 µM [5] [%] | inhibition at 1 µM [5] [%] | inhibition at 10 µM [5] [%] | IC50 [5] [µM] |
| --- | --- | --- | --- | --- | --- | --- | --- | --- | --- | --- | --- | --- | --- | --- | --- | --- | --- |
| CCN1CCN(Cc2ccc(C(=O)Nc3nc4cc(OC)ccc4s3)cc2)CC1 [4i, 4-((4-Ethylpiperazine-1-yl)methyl)-N-(5-methoxybenzo[d]thiazol-2-yl)benzamide] | > 100 | 86.9 ± 1.2 | 48 ± 0.9 | > 1000 | 25.2 ± 0.9 | 39.8 ± 0.9 | > 100 | 75.6 ± 1.2 | 41.7 ± 0.9 | > 1000 | 30.6 ± 0.7 | 43.8 ± 0.9 |  |  |  |  |  |
| C=CCN1CCN(Cc2ccc(C(=O)Nc3nc4cc(OC)ccc4s3)cc2)CC1 [4j, 4-((4-Allylpiperazine-1-yl)methyl)-N-(5-methoxybenzo[d]thiazol-2-yl)benzamide] | > 100 | 82.5 ± 1.5 | 47.6 ± 0.8 | > 1000 | 22.6 ± 0.8 | 32.9 ± 0.8 | > 100 | 74.5 ± 1.1 | 43.5 ± 0.8 | > 1000 | 32.9 ± 0.7 | 45.2 ± 0.9 |  |  |  |  |  |
| C#CCN1CCN(Cc2ccc(C(=O)Nc3nc4cc(OC)ccc4s3)cc2)CC1 [4k, N-(5-Methoxybenzo[d]thiazol-2-yl)-4-((4-(prop-2-yn-1-yl)piperazine-1-yl)methyl)benzamide] | 0.102 ± 0.0048 | 90.3 ± 1.5 |  | > 1000 | 26.4 ± 0.7 | 30.4 ± 0.7 | 0.124 ± 0.0058 |  |  | > 100 | 39.9 ± 0.8 | 58.6 ± 0.9 | 35.4 ± 1 | 48.9 ± 1.3 | 77.7 ± 2.7 | 87.1 ± 3.2 |  |
| COc1ccc2sc(NC(=O)c3ccc(CN4CCN(C(C)C)CC4)cc3)nc2c1 [4l, 4-((4-Isopropylpiperazine-1-yl)methyl)-N-(5-methoxybenzo[d]thiazol-2-yl)benzamide] | > 100 | 81.7 ± 1.3 | 48.1 ± 0.9 | > 1000 | 24.3 ± 0.7 | 38.1 ± 0.9 | > 100 | 77.9 ± 1.4 | 40.7 ± 0.9 | > 1000 | 34 ± 0.9 | 40.6 ± 0.9 |  |  |  |  |  |
| COc1ccc2sc(NC(=O)c3ccc(CN4CCN(CCN(C)C)CC4)cc3)nc2c1 [4m, 4-((4-(2-(Dimethylamino)ethyl)piperazine-1-yl)methyl)-N-(5-methoxybenzo[d]thiazol-2-yl)benzamide] | 0.0278 ± 0.001 | 95.3 ± 1.2 |  | > 1000 | 31.9 ± 0.8 | 42.4 ± 0.8 | 0.0567 ± 0.0022 |  |  | > 100 | 37.9 ± 0.8 | 61.3 ± 0.9 | 53.6 ± 1 | 72.5 ± 2.2 | 88.9 ± 2 | 94.7 ± 2.1 | 0.199 ± 0.0088 |
| COc1ccc2sc(NC(=O)c3ccc(CN4CCN(CCCN(C)C)CC4)cc3)nc2c1 [4n, 4-((4-(3-(Dimethylamino)propyl)piperazine-1-yl)methyl)-N-(5-methoxybenzo[d]thiazol-2-yl)benzamide] | 0.0421 ± 0.0018 | 95.3 ± 1.7 |  | > 1000 | 30.4 ± 0.9 | 40.9 ± 0.9 | > 100 | 70.3 ± 1.3 | 41 ± 0.9 | > 100 | 38.8 ± 0.7 | 60.1 ± 0.8 |  |  |  |  |  |
| O=C(NCCN1CCOCC1)c1ccc(Cl)cc1 [Moc., moclobemide, reference compound] |  |  |  |  |  |  |  |  |  |  | 82.1 ± 2.7 | 94.1 ± 2.8 |  |  |  |  |  |

Source: PMC9389372 (RSC Advances, 2022)
